Measurements reported in paper PMC8429728, “TNK1 is a ubiquitin-binding and 14-3-3-regulated kinase that can be targeted to block tumor growth” (Nature Communications, 2021).
Read-outs that look alike come from different tables or passages of the source.

Legend:
Test in all cases: biochemical
Set-up in all cases: Reaction Biology 371-kinase panel at Km ATP, per cent enzyme activity relative to DMSO, single dose in duplicate
[1] = biological target: EPHA4 (Homo sapiens, UniProt P54764); settings: duplicate measurements, Km ATP
Procedure, shortened: (§1)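 Percent kinase activity relative to vehicle (DMSO) is reported for a 371-kinase in vitro panel at 300 nM compound; IC50 values derive from variable-slope sigmoidal fits with the lower plateau fixed at 0.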

[2] = biological target: PKN2/PRK2 (Homo sapiens, UniProt Q16513); settings: duplicate measurements, Km ATP
Procedure, shortened: as §1

[3] = biological target: ALK1/ACVRL1 (Homo sapiens, UniProt P37023); settings: duplicate measurements, Km ATP
Procedure, shortened: as §1

[4] = biological target: T1, JNK1 (Homo sapiens, UniProt P45983); settings: duplicate measurements, Km ATP; read-out: % Enzyme Activity (relative to DMSO controls) / TP-0005801 (0.3µM) / Data 1
T1 construct: gene MAPK8
Procedure, shortened: as §1

[5] = biological target: DRAK1/STK17A (Homo sapiens, UniProt Q9UEE5); settings: duplicate measurements, Km ATP
Procedure, shortened: as §1

[6] = biological target: TIE2/TEK (Homo sapiens, UniProt Q02763); settings: duplicate measurements, Km ATP
Procedure, shortened: as §1

[7] = biological target: T2, MSSK1/STK23 (Homo sapiens, UniProt Q9UPE1); settings: duplicate measurements, Km ATP
T2 construct: gene SRPK3
Procedure, shortened: as §1

[8] = biological target: MUSK (Homo sapiens, UniProt O15146); settings: duplicate measurements, Km ATP
Procedure, shortened: as §1

[9] = biological target: KSR1 (Homo sapiens, UniProt Q8IVT5); settings: duplicate measurements, Km ATP
Procedure, shortened: as §1

[10] = biological target: PKN3/PRK3 (Homo sapiens, UniProt Q6P5Z2); settings: duplicate measurements, Km ATP
Procedure, shortened: as §1

[11] = biological target: ROS/ROS1 (Homo sapiens, UniProt P08922); settings: duplicate measurements, Km ATP
Procedure, shortened: as §1

[12] = biological target: T3, MEKK2 (Homo sapiens, UniProt Q9Y2U5); settings: duplicate measurements, Km ATP
T3 construct: gene MAP3K2
Procedure, shortened: as §1

[13] = biological target: SNRK (Homo sapiens, UniProt Q9NRH2); settings: duplicate measurements, Km ATP
Procedure, shortened: as §1

[14] = biological target: P38d/MAPK13 (Homo sapiens, UniProt O15264); settings: duplicate measurements, Km ATP
Procedure, shortened: as §1

[15] = biological target: T4, PKCtheta (Homo sapiens, UniProt Q04759); settings: duplicate measurements, Km ATP
T4 construct: gene PRKCQ
Procedure, shortened: as §1

[16] = biological target: T5, Aurora B (Homo sapiens, UniProt Q96GD4); settings: duplicate measurements, Km ATP
T5 construct: gene AURKB
Procedure, shortened: as §1

[17] = biological target: HIPK2 (Homo sapiens, UniProt Q9H2X6); settings: duplicate measurements, Km ATP
Procedure, shortened: as §1

[18] = biological target: FRK/PTK5 (Homo sapiens, UniProt P42685); settings: duplicate measurements, Km ATP
Procedure, shortened: as §1

[19] = biological target: ROCK2 (Homo sapiens, UniProt O75116); settings: duplicate measurements, Km ATP; read-out: % Enzyme Activity (relative to DMSO controls) / TP-0005801 (0.3µM) / Data 1
Procedure, shortened: as §1

[20] = biological target: ABL1 (Homo sapiens, UniProt P00519); settings: duplicate measurements, Km ATP
Procedure, shortened: as §1

[21] = read-out: % Enzyme Activity (relative to DMSO controls) / TP-0005801 (0.3µM) / Data 1
[22] = read-out: % Enzyme Activity (relative to DMSO controls) / TP-0005801 (0.3µM) / Data 2

Chain of HIPK2 (Q9H2X6 whole entry): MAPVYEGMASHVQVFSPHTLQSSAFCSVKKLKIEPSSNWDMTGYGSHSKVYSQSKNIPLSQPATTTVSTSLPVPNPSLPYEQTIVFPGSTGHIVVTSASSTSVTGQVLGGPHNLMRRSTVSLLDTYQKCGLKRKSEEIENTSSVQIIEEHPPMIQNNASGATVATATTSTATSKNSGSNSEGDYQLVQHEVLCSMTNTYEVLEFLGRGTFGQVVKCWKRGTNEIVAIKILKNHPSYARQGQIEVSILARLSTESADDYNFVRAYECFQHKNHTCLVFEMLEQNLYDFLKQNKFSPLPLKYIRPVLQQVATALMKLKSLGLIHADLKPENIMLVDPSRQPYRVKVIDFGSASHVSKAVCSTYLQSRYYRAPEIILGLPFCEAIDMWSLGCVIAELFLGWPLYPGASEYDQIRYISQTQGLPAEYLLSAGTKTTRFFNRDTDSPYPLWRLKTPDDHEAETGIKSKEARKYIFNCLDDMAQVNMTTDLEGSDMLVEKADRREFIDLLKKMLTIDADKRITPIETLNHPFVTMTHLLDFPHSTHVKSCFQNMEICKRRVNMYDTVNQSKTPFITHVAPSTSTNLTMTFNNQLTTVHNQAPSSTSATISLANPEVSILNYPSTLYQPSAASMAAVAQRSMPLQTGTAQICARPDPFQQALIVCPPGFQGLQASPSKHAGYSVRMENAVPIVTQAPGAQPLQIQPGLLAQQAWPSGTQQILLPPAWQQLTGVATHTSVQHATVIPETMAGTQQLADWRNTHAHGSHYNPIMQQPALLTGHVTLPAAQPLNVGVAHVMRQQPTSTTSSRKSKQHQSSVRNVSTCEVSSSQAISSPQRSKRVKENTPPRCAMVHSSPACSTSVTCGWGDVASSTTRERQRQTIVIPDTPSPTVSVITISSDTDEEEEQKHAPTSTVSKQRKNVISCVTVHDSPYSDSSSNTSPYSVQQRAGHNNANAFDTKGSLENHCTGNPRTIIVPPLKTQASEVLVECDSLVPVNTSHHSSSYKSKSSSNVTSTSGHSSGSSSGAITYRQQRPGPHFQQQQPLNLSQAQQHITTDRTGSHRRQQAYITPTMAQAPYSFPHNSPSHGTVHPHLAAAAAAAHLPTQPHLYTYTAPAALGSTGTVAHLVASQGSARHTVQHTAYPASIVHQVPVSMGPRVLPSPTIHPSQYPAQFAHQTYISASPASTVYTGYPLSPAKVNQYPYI
Chain of TIE2/TEK (Q02763 whole entry): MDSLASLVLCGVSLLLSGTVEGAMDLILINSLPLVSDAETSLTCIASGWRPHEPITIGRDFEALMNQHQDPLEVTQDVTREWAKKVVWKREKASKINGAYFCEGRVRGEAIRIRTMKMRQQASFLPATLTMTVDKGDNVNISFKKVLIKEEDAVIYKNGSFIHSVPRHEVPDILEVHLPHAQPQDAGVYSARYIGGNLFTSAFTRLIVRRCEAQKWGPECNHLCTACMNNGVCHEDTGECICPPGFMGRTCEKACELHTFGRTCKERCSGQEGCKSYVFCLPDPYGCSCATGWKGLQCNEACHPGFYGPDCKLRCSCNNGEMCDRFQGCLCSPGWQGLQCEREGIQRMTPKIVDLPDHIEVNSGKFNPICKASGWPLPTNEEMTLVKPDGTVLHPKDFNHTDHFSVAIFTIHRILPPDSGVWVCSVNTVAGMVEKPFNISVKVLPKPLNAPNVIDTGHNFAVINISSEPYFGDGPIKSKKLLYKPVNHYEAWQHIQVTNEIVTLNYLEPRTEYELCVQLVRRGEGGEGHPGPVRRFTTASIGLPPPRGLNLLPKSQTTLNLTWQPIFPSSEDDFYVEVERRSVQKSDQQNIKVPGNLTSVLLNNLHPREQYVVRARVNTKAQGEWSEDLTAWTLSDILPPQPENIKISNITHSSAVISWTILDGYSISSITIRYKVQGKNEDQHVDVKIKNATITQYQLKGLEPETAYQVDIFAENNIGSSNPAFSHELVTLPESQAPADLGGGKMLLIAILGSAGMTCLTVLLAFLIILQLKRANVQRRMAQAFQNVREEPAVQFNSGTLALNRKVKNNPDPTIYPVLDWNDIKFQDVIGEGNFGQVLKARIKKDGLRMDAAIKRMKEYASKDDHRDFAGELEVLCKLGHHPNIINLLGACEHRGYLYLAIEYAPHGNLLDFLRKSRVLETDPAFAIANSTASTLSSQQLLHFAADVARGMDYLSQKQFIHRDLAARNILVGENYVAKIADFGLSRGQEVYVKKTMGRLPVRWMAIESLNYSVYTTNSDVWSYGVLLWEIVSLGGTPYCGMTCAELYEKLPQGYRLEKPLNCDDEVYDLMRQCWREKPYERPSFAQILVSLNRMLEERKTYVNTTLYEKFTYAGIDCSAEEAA
Chain of PKN2/PRK2 (Q16513 whole entry): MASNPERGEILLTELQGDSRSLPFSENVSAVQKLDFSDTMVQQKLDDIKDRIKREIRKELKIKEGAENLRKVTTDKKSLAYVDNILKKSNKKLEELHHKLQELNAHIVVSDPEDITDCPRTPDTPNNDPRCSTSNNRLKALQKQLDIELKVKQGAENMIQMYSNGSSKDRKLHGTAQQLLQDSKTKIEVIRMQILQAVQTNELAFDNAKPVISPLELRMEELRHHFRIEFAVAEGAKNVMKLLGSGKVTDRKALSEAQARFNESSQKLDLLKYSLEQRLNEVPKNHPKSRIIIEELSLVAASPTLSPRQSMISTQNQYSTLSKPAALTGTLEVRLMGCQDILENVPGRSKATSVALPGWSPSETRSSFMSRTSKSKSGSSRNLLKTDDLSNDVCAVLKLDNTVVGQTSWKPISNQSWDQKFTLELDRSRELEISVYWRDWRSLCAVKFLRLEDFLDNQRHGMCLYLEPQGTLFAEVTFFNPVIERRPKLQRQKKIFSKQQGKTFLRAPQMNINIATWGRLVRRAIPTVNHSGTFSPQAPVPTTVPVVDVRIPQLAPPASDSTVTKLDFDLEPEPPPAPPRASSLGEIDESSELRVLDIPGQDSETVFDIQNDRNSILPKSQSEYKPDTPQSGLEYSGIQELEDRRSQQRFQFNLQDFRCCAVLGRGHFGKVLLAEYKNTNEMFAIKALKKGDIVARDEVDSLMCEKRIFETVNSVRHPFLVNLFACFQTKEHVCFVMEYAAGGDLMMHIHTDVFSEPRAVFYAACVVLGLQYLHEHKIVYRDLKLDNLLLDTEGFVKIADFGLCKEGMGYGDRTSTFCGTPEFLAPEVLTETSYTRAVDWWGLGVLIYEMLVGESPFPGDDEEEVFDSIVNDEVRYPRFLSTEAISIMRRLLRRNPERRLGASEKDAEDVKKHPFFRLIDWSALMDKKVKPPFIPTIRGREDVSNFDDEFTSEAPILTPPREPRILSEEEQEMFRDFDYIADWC
Chain of ABL1 (P00519 whole entry): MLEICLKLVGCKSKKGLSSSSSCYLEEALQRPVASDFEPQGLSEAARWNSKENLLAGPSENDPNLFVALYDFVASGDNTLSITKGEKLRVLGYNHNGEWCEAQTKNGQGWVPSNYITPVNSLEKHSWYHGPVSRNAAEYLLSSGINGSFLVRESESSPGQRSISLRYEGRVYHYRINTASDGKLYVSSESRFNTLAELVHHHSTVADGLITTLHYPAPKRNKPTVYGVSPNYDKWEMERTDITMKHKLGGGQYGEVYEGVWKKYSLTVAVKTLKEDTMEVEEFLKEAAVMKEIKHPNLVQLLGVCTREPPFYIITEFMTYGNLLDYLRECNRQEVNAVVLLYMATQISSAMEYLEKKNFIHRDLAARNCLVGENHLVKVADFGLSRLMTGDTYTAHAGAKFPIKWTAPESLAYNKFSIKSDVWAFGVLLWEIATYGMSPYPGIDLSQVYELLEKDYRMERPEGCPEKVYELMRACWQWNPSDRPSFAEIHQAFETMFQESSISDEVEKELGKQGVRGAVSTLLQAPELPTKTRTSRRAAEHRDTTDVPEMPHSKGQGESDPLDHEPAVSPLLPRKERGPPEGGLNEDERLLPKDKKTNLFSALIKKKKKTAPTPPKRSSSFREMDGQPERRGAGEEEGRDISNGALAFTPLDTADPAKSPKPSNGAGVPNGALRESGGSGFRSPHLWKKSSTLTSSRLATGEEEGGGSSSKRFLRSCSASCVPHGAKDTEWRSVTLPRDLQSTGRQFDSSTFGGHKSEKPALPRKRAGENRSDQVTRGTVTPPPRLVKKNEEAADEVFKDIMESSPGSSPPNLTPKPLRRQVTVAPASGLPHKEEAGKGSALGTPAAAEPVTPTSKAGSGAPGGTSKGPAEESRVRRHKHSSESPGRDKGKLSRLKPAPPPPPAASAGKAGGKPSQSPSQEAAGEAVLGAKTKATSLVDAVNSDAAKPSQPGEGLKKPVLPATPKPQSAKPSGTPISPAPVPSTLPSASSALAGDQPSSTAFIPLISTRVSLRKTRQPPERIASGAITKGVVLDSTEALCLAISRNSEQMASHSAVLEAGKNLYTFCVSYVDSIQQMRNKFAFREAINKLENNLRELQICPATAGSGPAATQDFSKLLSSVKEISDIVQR
Chain of FRK/PTK5 (P42685 whole entry): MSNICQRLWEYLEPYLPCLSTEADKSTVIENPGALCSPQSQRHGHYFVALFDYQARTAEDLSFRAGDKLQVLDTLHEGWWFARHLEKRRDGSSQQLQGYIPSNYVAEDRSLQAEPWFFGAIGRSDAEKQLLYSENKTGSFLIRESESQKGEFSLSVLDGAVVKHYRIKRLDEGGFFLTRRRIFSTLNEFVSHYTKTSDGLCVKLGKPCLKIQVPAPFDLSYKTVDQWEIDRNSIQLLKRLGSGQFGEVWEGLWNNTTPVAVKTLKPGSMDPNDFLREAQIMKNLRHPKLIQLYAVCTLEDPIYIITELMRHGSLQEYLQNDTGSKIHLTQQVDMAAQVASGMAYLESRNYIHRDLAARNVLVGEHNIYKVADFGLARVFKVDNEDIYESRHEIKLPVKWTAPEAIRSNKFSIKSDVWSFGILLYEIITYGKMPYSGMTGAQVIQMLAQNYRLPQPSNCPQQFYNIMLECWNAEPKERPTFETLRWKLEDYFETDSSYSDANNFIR

remaining activity at 0.3 µM [1, 21]: 98.9%
remaining activity at 0.3 µM [1, 22]: 98.5%
remaining activity at 0.3 µM [2, 21]: 97.2%
remaining activity at 0.3 µM [2, 22]: 95.9%
remaining activity at 0.3 µM [3, 21]: 88.3%
remaining activity at 0.3 µM [3, 22]: 83.6%
remaining activity at 0.3 µM [4]: 74.7%
remaining activity at 0.3 µM [5, 21]: 92%
remaining activity at 0.3 µM [5, 22]: 88.6%
remaining activity at 0.3 µM [6, 21]: 83.6%
remaining activity at 0.3 µM [6, 22]: 80.7%
remaining activity at 0.3 µM [7, 21]: 89.7%
remaining activity at 0.3 µM [7, 22]: 88.8%
remaining activity at 0.3 µM [8, 21]: 62%
remaining activity at 0.3 µM [8, 22]: 57.2%
remaining activity at 0.3 µM [9, 21]: 99.2%
remaining activity at 0.3 µM [9, 22]: 97.6%
remaining activity at 0.3 µM [10, 21]: 95.4%
remaining activity at 0.3 µM [10, 22]: 93.7%
remaining activity at 0.3 µM [11, 21]: 10.1%
remaining activity at 0.3 µM [11, 22]: 9.96%
remaining activity at 0.3 µM [12, 21]: 86.8%
remaining activity at 0.3 µM [12, 22]: 81%
remaining activity at 0.3 µM [13, 21]: 98.8%
remaining activity at 0.3 µM [13, 22]: 98.6%
remaining activity at 0.3 µM [14, 21]: 102%
remaining activity at 0.3 µM [14, 22]: 91.4%
remaining activity at 0.3 µM [15, 21]: 91.3%
remaining activity at 0.3 µM [15, 22]: 90.3%
remaining activity at 0.3 µM [16, 21]: 86.7%
remaining activity at 0.3 µM [16, 22]: 83.9%
remaining activity at 0.3 µM [17, 21]: 106%
remaining activity at 0.3 µM [17, 22]: 96.6%
remaining activity at 0.3 µM [18, 21]: 72%
remaining activity at 0.3 µM [18, 22]: 71%
remaining activity at 0.3 µM [19]: 103%
remaining activity at 0.3 µM [20, 21]: 109%
remaining activity at 0.3 µM [20, 22]: 107%
Structure (SMILES): COc1cc(N2CCN(C)CC2)c(C)cc1Nc1ncc(Br)c(Nc2cccnc2N(C)C)n1 [TP-5801]
